Test results taken from patent publication US6348486B1, “Methods for modulating bladder function” (American Home Products Corporation, priority 2000, dated 2002).

What was measured:
[1] = tested on: isolated carbachol contracted rat bladder strips; test: Relaxation of isolated carbachol contracted rat bladder strips
Procedure: (§1) Using quantitative rtPCR, the expression of KCNQ1, KCNQ3 and KCNQ5 potassium channels was identified in the rat urinary bladder. […] To further probe M-current activity in the bladder, retigabine (10 μM, M-current agonist) was tested in isolated bladder smooth muscle cells using standard patch-clamp techniques. […] This hyperpolarization was reversed by the addition of linopirdine (50 μM an M-current antagonist) to the tissue bath. […] This relaxation was reversed by the M-current blockers linopirdine and XE-991.

[2] = tested on: isolated bladder smooth muscle cells; test: Patch-clamp of isolated bladder smooth muscle cells (M-current activity); type: cell-based, rat
Procedure: as §1

[3] = molecular target: T1, KCNQ2/3 potassium channels (Homo sapiens, UniProt O43525+O43526); settings: oocytes; cited from earlier work
T1 construct: host or cells: oocytes (heterologous expression, as described in the cited article)
T1 sequence (O43526 whole entry): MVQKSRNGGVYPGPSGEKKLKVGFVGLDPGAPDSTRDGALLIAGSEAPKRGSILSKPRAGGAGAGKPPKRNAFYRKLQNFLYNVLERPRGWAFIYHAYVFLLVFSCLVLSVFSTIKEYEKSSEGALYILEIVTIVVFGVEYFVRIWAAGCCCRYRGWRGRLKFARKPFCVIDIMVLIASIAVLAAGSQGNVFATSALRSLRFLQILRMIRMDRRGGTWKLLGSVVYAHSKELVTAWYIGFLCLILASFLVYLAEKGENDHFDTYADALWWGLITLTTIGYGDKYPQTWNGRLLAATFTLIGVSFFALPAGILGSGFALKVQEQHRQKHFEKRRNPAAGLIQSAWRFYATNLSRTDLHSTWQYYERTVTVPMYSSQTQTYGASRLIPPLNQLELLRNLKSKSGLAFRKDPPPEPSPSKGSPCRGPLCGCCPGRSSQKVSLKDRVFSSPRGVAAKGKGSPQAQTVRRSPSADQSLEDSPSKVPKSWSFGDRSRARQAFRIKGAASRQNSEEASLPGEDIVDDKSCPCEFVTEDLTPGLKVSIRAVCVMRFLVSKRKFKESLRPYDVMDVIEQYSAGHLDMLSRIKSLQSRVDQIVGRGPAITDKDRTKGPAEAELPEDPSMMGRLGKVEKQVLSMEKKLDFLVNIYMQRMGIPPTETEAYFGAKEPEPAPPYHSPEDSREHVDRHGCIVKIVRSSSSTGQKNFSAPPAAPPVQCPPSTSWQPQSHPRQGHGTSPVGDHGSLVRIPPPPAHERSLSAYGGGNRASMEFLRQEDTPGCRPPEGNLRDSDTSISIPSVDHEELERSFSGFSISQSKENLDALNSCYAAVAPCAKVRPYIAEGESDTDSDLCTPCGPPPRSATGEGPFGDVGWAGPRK
T1 sequence (O43525 whole entry): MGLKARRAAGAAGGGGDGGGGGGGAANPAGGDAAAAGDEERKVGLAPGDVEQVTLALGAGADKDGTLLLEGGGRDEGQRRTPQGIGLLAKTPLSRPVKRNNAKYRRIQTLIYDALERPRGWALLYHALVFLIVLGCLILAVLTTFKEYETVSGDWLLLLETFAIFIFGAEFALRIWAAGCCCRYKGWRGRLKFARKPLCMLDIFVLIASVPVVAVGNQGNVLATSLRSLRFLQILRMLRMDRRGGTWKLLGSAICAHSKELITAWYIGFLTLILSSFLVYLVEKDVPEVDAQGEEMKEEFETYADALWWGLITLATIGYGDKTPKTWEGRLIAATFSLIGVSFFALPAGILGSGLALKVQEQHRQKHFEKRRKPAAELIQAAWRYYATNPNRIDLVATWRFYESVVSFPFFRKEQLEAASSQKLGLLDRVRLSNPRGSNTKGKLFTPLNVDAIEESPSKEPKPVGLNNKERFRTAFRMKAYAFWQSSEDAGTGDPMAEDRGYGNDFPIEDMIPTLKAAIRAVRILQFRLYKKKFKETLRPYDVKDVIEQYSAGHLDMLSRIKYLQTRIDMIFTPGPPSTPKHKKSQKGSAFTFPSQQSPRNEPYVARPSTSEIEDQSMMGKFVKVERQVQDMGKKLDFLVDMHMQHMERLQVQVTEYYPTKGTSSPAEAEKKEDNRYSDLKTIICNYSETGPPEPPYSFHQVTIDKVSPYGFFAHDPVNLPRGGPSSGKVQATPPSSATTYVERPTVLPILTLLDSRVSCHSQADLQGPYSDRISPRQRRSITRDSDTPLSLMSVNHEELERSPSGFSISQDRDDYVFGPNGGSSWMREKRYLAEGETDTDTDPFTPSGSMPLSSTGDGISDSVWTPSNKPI

Row | SMILES | reversal of retigabine-induced relaxation by M-current blockers [1] | reversal of retigabine-induced hyperpolarization ([2]; linopirdine 50 μM added to the tissue bath) | membrane hyperpolarization ([2]; retigabine 10 μM, n=5) [mV] | outward current insensitive to iberiotoxin ([2]; retigabine 10 μM, standard patch-clamp) | IC50 ([1]; Rattus norvegicus, read-out: IC50 for relaxation of carbachol contracted bladder strips) [µM] | channel deactivation [3] | rate of channel activation [3] | voltage dependence of channel activation [3]
1 | O=C1c2ccccc2C(Cc2ccncc2)(Cc2ccncc2)c2ccccc21 [XE-991] | reversed |  |  |  |  |  |  | 
2 | O=C1N(c2ccccc2)c2ccccc2C1(Cc1ccncc1)Cc1ccncc1 [linopirdine] | reversed | reversed |  |  |  |  |  | 
3 | CCOC(=O)Nc1ccc(NCc2ccc(F)cc2)cc1N [retigabine, N-[2-amino-4-(4-fluorobenzylamino)-phenyl]carbamic acid ethyl ester] |  |  | 17.8±3.0 | significantly increased | 3.5 ± 0.9 | slows channel deactivation | increases the rate of channel activation | shifts the voltage dependence of channel activation to more hyperpolarized membrane potentials
